Results taken from ChEMBL document CHEMBL1201862, “PubChem BioAssay data set” (2004).
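Interpolation was linear, between the two tested concentrations surrounding the appropriate level; five concentrations were tested over 48 hours in 96-well plates. GI50 marks 50% less growth.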 Calls of active or inactive are those of the source. Cut-off read from the data, not from the text of the source: active = GI50 up to about 1.1 µM and inactive = higher.

Key:
Assay in all cases: NCI-60 cell line screen, 48 h
[1] = system: A498
[2] = system: A549
[3] = system: ACHN
[4] = system: COLO 205
[5] = system: DU-145
[6] = system: HCT-15
[7] = system: HOP-62
[8] = system: HT-29
[9] = system: IGROV-1
[10] = system: KM12
[11] = system: M14
[12] = system: MCF7
[13] = system: MDA-MB-435
[14] = system: NCI-H522
[15] = system: NCI/ADR-RES
[16] = system: OVCAR-8
[17] = system: RXF 393
[18] = system: SK-MEL-2
[19] = system: SN12C

Measured: GI50

COC(=O)CNC(=O)CNC(=O)CSc1nnc(COc2ccc(Cl)cc2)n1-c1ccccc1
> 100 µM: [6]
inactive: [1] > 100 µM | [2] > 100 µM | [3] > 100 µM | [4] > 100 µM | [5] > 100 µM | [7] > 100 µM | [8] > 100 µM | [9] 17.9 µM | [10] 21.3 µM | [11] 37.4 µM | [12] > 100 µM | [13] 18.7 µM | [14] 5.46 µM | [15] > 100 µM | [16] > 100 µM | [17] 15.4 µM | [18] 19.4 µM | [19] > 100 µM

CC(=O)OC1CCN(C(=O)c2ccccc2)CC1CC1(c2cc3ccccc3[nH]2)OCCO1 (centres undefined)
48.3 µM: [6]
inactive: [1] 26.7 µM | [2] 50.1 µM | [3] > 100 µM | [4] 53.1 µM | [5] > 100 µM | [7] > 100 µM | [8] > 100 µM | [9] 61.2 µM | [10] 67.5 µM | [11] 83.8 µM | [12] > 100 µM | [13] 42.8 µM | [14] 78.9 µM | [15] 51.6 µM | [16] 73.1 µM | [17] > 100 µM | [18] > 100 µM | [19] 84.3 µM

CSc1ncnc2c1ncn2C1OC(CO)C(O)OC1O (centres undefined)
0.506 µM: [6]
active: [1] 1.11 µM | [2] 0.662 µM | [3] 0.643 µM | [5] 0.697 µM | [8] 0.449 µM | [9] 0.897 µM | [10] 0.789 µM | [12] 0.262 µM | [19] 1.06 µM
inactive: [4] 1.8 µM | [7] 3.7 µM | [11] 1.14 µM | [13] 1.7 µM | [14] 3.34 µM | [15] 2.56 µM | [16] 2.12 µM | [17] 11.7 µM | [18] 2.76 µM

N#Cc1c(C#N)c(-c2cccc([N+](=O)[O-])c2)n(-c2ccccc2)c1N
> 100 µM: [6]
inactive: [1] 17.8 µM | [2] 33.8 µM | [3] > 100 µM | [4] > 100 µM | [5] > 100 µM | [7] 49.4 µM | [8] > 100 µM | [9] 89.1 µM | [10] > 100 µM | [11] > 100 µM | [12] > 100 µM | [13] > 100 µM | [14] > 100 µM | [15] > 100 µM | [16] 99.3 µM | [17] 41.7 µM | [18] > 100 µM | [19] > 100 µM

CC(C)(C)c1cc(C(=O)/C=C/c2ccc3c(c2)CCO3)cc(C(C)(C)C)c1O
inactive: [2] 1.63 µM | [3] 1.69 µM | [5] 1.39 µM | [7] 4.15 µM | [9] 2.29 µM | [11] 1.17 µM | [12] 1.23 µM | [16] 1.63 µM | [18] 1.29 µM | [19] 2.99 µM
1.04 µM: [6]
active: [1] 1.12 µM | [4] 0.701 µM | [8] 1.04 µM | [10] 0.49 µM | [13] 0.327 µM | [14] 0.323 µM | [15] 0.614 µM | [17] 0.216 µM

CC(C)C(C/C=C1/CC(CO)(COC(=O)C2CCCCC2)OC1=O)C(C)C (centres undefined)
inactive: [1] 20.4 µM | [2] 12.5 µM | [3] 13.3 µM | [4] 5.94 µM | [5] 13.2 µM | [7] 11.7 µM | [8] 27.9 µM | [9] 19.1 µM | [10] 21.1 µM | [11] 17.3 µM | [12] 18.7 µM | [13] 34.7 µM | [14] 17.3 µM | [15] 21.3 µM | [16] 17.7 µM | [17] 21.5 µM | [18] > 100 µM | [19] 16.8 µM
21.6 µM: [6]
